# Measured values from publication PMC5939083 (Proceedings of the National Academy of Sciences of the …, 2018).
# Target: T1, CYP9K1 (Anopheles gambiae, UniProt Q8T633)
# T1 sequence (Q8T633 1-531): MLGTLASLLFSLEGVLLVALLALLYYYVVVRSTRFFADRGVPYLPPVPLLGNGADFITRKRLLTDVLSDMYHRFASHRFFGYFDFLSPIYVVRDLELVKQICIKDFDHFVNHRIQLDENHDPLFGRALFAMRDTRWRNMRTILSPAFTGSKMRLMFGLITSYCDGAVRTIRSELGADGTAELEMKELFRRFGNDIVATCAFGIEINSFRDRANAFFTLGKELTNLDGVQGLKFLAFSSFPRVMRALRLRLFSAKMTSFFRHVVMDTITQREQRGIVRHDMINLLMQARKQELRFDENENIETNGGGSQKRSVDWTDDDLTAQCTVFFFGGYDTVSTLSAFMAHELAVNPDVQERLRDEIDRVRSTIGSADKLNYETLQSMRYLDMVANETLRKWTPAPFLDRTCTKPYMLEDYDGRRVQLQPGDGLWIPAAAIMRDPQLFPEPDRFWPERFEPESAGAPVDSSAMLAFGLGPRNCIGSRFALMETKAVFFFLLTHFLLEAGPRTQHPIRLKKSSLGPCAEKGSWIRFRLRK
# T1 sequence (Q86QH5 1-679 partner): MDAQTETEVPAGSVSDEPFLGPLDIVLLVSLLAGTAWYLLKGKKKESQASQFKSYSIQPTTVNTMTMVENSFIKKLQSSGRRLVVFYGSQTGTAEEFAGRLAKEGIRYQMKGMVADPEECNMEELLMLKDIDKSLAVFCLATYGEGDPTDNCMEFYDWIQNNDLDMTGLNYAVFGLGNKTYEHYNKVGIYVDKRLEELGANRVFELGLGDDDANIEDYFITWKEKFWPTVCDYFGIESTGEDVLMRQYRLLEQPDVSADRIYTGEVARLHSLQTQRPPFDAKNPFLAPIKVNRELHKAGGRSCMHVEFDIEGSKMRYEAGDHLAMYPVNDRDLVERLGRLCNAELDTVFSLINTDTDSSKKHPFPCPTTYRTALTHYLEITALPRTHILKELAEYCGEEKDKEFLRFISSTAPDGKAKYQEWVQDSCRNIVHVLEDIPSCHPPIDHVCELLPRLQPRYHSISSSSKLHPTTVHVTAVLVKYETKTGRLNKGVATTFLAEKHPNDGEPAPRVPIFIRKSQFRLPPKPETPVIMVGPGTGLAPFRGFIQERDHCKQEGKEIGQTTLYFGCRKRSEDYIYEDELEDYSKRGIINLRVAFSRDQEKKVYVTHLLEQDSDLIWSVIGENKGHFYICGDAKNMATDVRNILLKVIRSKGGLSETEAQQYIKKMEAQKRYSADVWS
# T1 sequence (Q86QH4 1-128 partner): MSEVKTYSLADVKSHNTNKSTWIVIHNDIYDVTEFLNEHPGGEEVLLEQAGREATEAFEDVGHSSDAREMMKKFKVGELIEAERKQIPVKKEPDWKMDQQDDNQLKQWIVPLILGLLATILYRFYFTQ
# Experiment: HPLC substrate depletion, Michaelis-Menten fit
# Assay type: biochemical
# Conditions: NADPH generating system; AgCPR, AgCytb5; Tris-HCl 0.2 M pH 7.4, 0.25 mM MgCl2, 30 °C; 0.5-150 μM deltamethrin
structure (smiles),measurement,value
CC1(C)[C@H](C(=O)O[C@H](C#N)c2cccc(Oc3ccccc3)c2)[C@@H]1C=C(Br)Br [deltamethrin],Km,28.2 µM
